According to patent US20090270450A1, “CHEMICAL COMPOUNDS” (ASTRAZENECA AB, priority 2006, published 2009):

Molecular target: T1, His-tagged kinase domain of CSF-1R (amino acids 568-912) (Homo sapiens, UniProt P07333)
T1 construct: The His-tagged kinase domain of CSF-1R (i.e., amino acids 568-912, GeneBank ID NM_005211); His; made in house; host or cells: baculovirus infected SF+Express insect cells
T1 sequence (P07333 568-912): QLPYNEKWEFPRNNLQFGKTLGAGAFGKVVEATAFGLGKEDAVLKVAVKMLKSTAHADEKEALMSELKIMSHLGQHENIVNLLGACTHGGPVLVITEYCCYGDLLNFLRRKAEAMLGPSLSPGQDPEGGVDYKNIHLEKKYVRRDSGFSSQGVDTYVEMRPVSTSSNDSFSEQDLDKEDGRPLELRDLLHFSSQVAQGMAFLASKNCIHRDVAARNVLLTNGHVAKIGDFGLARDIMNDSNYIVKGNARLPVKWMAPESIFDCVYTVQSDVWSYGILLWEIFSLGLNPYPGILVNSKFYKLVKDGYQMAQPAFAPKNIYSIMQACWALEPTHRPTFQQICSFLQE
Experiment: Assay 1: CSF-1R in vitro AlphaScreen assay
Assay type: biochemical
Conditions: phosphorylation of biotinylated pEY substrate; 0.57 nM CSF-1R, 90 μM ATP
Description: Assay 1: CSF-1R in Vitro AlphaScreen Assay
Activity of purified CSF-1R was determined in vitro using an Amplified Luminescent Proximity Homogeneous Assay (ALPHA)(Perkin Elmer), which measures phosphorylation of the CSF-1R substrate, biotinylated poly-glutamine-tyrosine peptide (PEY-HTRF CisBio 61GT0BLD), as described below. The His-tagged kinase domain of CSF-1R (i.e., amino acids 568-912, GeneBank ID NM_005211; (see page 25 lines 13-19 of WO 2006/067445 for the sequence listing)) was purified from baculovirus infected SF+Express insect cells (1.4×10^6 cells/ml), French pressed and chromatographed through subsequent Qiagen Ni-NTA, Superflow Mono Q HR 10/10, and Superdex 200 SEC columns. Typical yield was 245 μg/l of cell pellet at >95% purity.
The phosphorylation of the CSF-1R substrate in the presence and absence of the compound of interest was determined. Briefly, 0.57 nM of purified CSF-1R, 5 nM pEY substrate, and compound were preincubated in 1× buffer for 30 minutes at 25° C. Reactions were initiated with addition of 90 μM adenosine triphosphate (ATP) in 1× buffer and incubated at 25° C. for 60 minutes and reactions stopped by addition of 5 μl of detection mix consisting of 136 mM NaCl, 102 mM ethylenediamine tetraacetic acid, 1.65 mg/ml BSA, 40 ug/ml Streptavidin donor beads (Perkin Elmer 6760002), 40 ug/ml pTyr100 acceptor beads (Perkin Elmer 6760620). Plates were incubated at 25° C. for 18 hours in the dark. Phosphorylated substrate was detected by an EnVision plate reader (Perkin Elmer) 680 nm excitation, 520-620 nm emission. Data was graphed and IC50s calculated using Excel Fit (Microsoft).

Structure (SMILES)	IC50 [nM]
COc1cc2ncc(C(N)=O)c(Nc3ccc(Cl)c(Cl)c3)c2cc1CCCN [Example 1, 6-(3-Aminopropyl)-4-[(3,4-dichlorophenyl)amino]-7-methoxyquinoline-3-carboxamide]	2
CCOc1cc2ncc(C(N)=O)c(Nc3cccc(Cl)c3F)c2cc1CCCO [Example 3, 4-[(3-Chloro-2-fluorophenyl)amino]-7-ethoxy-6-(3-hydroxypropyl)quinoline-3-carboxamide]	5
COc1cc2ncc(C(N)=O)c(Nc3ccc(F)cc3F)c2cc1CCCN1CCCCC1 [Example 8, 4-[(2,4-Difluorophenyl)amino]-7-methoxy-6-(3-piperidin-1-ylpropyl)quinoline-3-carboxamide]	20
COc1cc2ncc(C(N)=O)c(Nc3ccc(F)cc3F)c2cc1CCCN(C)C [Example 9, 4-[(2,4-Difluorophenyl)amino]-6-[3-(dimethylamino)propyl]-7-methoxyquinoline-3-carboxamide]	3
COc1cc2ncc(C(N)=O)c(Nc3ccc(F)cc3F)c2cc1CCCNC1CC1 [Example 10, 6-[3-(Cyclopropylamino)propyl]-4-[(2,4-difluorophenyl)amino]-7-methoxyquinoline-3-carboxamide]	23
COc1cc2ncc(C(N)=O)c(Nc3ccc(Cl)c(Cl)c3)c2cc1CCCNC1CC1 [Example 11, 6-[3-(Cyclopropylamino)propyl]-4-[(3,4-dichlorophenyl)amino]-7-methoxyquinoline-3-carboxamide]	4
COc1cc2ncc(C(N)=O)c(Nc3ccc(Cl)c(Cl)c3)c2cc1CCCN1CCCCC1 [Example 12, 4-[(3,4-Dichlorophenyl)amino]-7-methoxy-6-(3-piperidin-1-ylpropyl)quinoline-3-carboxamide]	4
COc1cc2ncc(C(N)=O)c(Nc3ccc(Cl)c(Cl)c3)c2cc1CCCN(C)C [Example 13, 4-[(3,4-Dichlorophenyl)amino]-6-[3-(dimethylamino)propyl]-7-methoxyquinoline-3-carboxamide]	1
COc1cc2ncc(C(N)=O)c(Nc3ccc(F)cc3F)c2cc1CCCO [Example 14, 4-[(2,4-Difluorophenyl)amino]-6-(3-hydroxypropyl)-7-methoxyquinoline-3-carboxamide]	8
COc1cc2ncc(C(N)=O)c(Nc3ccc(Cl)c(Cl)c3)c2cc1CCCO [Example 15, 4-[(3,4-Dichlorophenyl)amino]-6-(3-hydroxypropyl)-7-methoxyquinoline-3-carboxamide]	2
CCOc1cc2ncc(C(N)=O)c(Nc3ccc(F)cc3F)c2cc1CCCO [Example 16, 4-[(2,4-Difluorophenyl)amino]-7-ethoxy-6-(3-hydroxypropyl)quinoline-3-carboxamide]	5
COc1cc2ncc(C(N)=O)c(Nc3ccc(F)c(Cl)c3)c2cc1CCCO [Example 17, 4-[(3-Chloro-4-fluorophenyl)amino]-6-(3-hydroxypropyl)-7-methoxyquinoline-3-carboxamide]	9
COc1cc2ncc(C(N)=O)c(Nc3cccc(Cl)c3F)c2cc1CCCO [Example 18, 4-[(3-Chloro-2-fluorophenyl)amino]-6-(3-hydroxypropyl)-7-methoxyquinoline-3-carboxamide]	< 3
COc1cc2ncc(C(N)=O)c(Nc3cccc(Cl)c3Cl)c2cc1CCCO [Example 19, 4-[(2,3-Dichlorophenyl)amino]-6-(3-hydroxypropyl)-7-methoxyquinoline-3-carboxamide]	8
CCc1ccc(Nc2c(C(N)=O)cnc3cc(OC)c(CCCO)cc23)cc1 [Example 20, 4-[(4-Ethylphenyl)amino]-6-(3-hydroxypropyl)-7-methoxyquinoline-3-carboxamide]	38
CCc1ccc(Nc2c(C(N)=O)cnc3cc(OC)c(C#CCO)cc23)cc1 [Example 21, 4-[(4-Ethylphenyl)amino]-6-(3-hydroxyprop-1-yn-1-yl)-7-methoxyquinoline-3-carboxamide]	18
CCOc1cc2ncc(C(N)=O)c(Nc3ccc(CC)cc3)c2cc1CCCO [Example 22, 7-Ethoxy-4-[(4-ethylphenyl)amino]-6-(3-hydroxypropyl)quinoline-3-carboxamide]	33

Structure (SMILES)	IC50 [nM]
CCOc1cc2ncc(C(N)=O)c(Nc3ccc(Cl)c(Cl)c3)c2cc1CCCO [Example 23, 4-[(3,4-Dichlorophenyl)amino]-7-ethoxy-6-(3-hydroxypropyl)quinoline-3-carboxamide]	22
CCOc1cc2ncc(C(N)=O)c(Nc3cccc(Cl)c3Cl)c2cc1CCCO [Example 24, 4-[(2,3-Dichlorophenyl)amino]-7-ethoxy-6-(3-hydroxypropyl)quinoline-3-carboxamide]	26
CCOc1cc2ncc(C(N)=O)c(Nc3ccc(F)c(Cl)c3)c2cc1CCCO [Example 25, 4-[(3-Chloro-4-fluorophenyl)amino]-7-ethoxy-6-(3-hydroxypropyl)quinoline-3-carboxamide]	7
COc1cc2ncc(C(N)=O)c(Nc3ccc(Cl)c(Cl)c3)c2cc1C1CC1 [Example 26, 6-Cyclopropyl-4-[(3,4-dichlorophenyl)amino]-7-methoxyquinoline-3-carboxamide]	140
COc1cc2ncc(C(N)=O)c(Nc3ccc(F)cc3F)c2cc1C1CC1 [Example 27, 6-Cyclopropyl-4-[(2,4-difluorophenyl)amino]-7-methoxyquinoline-3-carboxamide]	65
COc1cc2c(Nc3ccc(F)cc3F)c(C(N)=O)cnc2cc1C1CC1 [Example 28, 7-Cyclopropyl-4-[(2,4-difluorophenyl)amino]-6-methoxyquinoline-3-carboxamide]	14
COc1cc2c(Nc3ccc(Cl)c(Cl)c3)c(C(N)=O)cnc2cc1C1CC1 [Example 29, 7-Cyclopropyl-4-[(3,4-dichlorophenyl)amino]-6-methoxyquinoline-3-carboxamide]	57
CCOc1cc2ncc(C(N)=O)c(Nc3ccc(F)cc3F)c2cc1-c1ccc(OC)nc1 [Example 30, 4-[(2,4-Difluorophenyl)amino]-7-ethoxy-6-(6-methoxypyridin-3-yl)quinoline-3-carboxamide]	76
CCOc1cc2ncc(C(N)=O)c(Nc3ccc(F)cc3F)c2cc1-c1cccnc1 [Example 31, 4-[(2,4-Difluorophenyl)amino]-7-ethoxy-6-pyridin-3-ylquinoline-3-carboxamide]	43
CCOc1cc2ncc(C(N)=O)c(Nc3ccc(F)cc3F)c2cc1-c1c(C)noc1C [Example 32, 4-[(2,4-Difluorophenyl)amino]-6-(3,5-dimethylisoxazol-4-yl)-7-ethoxyquinoline-3-carboxamide]	35
CCOc1cc2ncc(C(N)=O)c(Nc3ccc(F)cc3F)c2cc1-c1ccc[nH]1 [Example 33, 4-[(2,4-Difluorophenyl)amino]-7-ethoxy-6-(1H-pyrrol-2-yl)quinoline-3-carboxamide]	96
CCOc1cc2ncc(C(N)=O)c(Nc3ccc(F)cc3F)c2cc1-c1cncnc1 [Example 34, 4-[(2,4-Difluorophenyl)amino]-7-ethoxy-6-pyrimidin-5-ylquinoline-3-carboxamide]	25
CCOc1cc2ncc(C(N)=O)c(Nc3ccc(F)cc3F)c2cc1-c1ccncc1 [Example 35, 4-[(2,4-Difluorophenyl)amino]-7-ethoxy-6-pyridin-4-ylquinoline-3-carboxamide]	61
CCOc1cc2ncc(C(N)=O)c(Nc3ccc(F)cc3F)c2cc1-c1cn[nH]c1 [Example 36, 4-[(2,4-Difluorophenyl)amino]-7-ethoxy-6-(1H-pyrazol-4-yl)quinoline-3-carboxamide]	28
CCOc1cc2ncc(C(N)=O)c(Nc3ccc(F)cc3F)c2cc1-c1cnn(CC(C)C)c1 [Example 37, 4-[(2,4-Difluorophenyl)amino]-7-ethoxy-6-(1-isobutyl-1H-pyrazol-4-yl)quinoline-3-carboxamide]	440
CCOc1cc2ncc(C(N)=O)c(Nc3ccc(F)cc3F)c2cc1C1=CCN(C(=O)OC(C)(C)C)CC1 [Example 38, tert-Butyl 4-{3-(aminocarbonyl)-4-[(2,4-difluorophenyl)amino]-7-ethoxyquinolin-6-yl}-3,6-dihydropyridine-1(2H)-carboxylate]	660
